PubChem BioAssay AID330 (DTP/NCI, 2004)
Several values for one entry are separate records, joined by “and”; a condition that tells them apart may be missing. Equal values may be shown once. Toxic doses and inconclusive results are not listed. The calls were made as follows: active = survival T/C of 150% or more; inactive = T/C below 125% in these data.

Tested on: P388 leukemia ip, CD2F1 mice, survival T/C
Assay: NCI In Vivo Anticancer Drug Screen. Data for tumor model P388 Leukemia (intraperitoneal) in CD2F1 (CDF1) mice
Conditions: endpoint: median survival time, higher = longer survival
How it was run: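 Mice carrying the transplanted tumor received test compound or vehicle. Survival was recorded in each group, and the value is the treated-group measurement divided by that of the vehicle-treated control group.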

[1] = dose: 15.0 mg/kg/injection, schedule: Q01DX005 (ip), vehicle: saline with Tween-80
[2] = dose: 30.0 mg/kg/injection, schedule: Q01DX005 (ip), vehicle: saline with Tween-80
[3] = dose: 50.0 mg/kg/injection, schedule: Q01DX009 (ip), vehicle: saline with Tween-80
[4] = dose: 60.0 mg/kg/injection, schedule: Q01DX005 (ip), vehicle: saline with Tween-80
[5] = dose: 100.0 mg/kg/injection, schedule: Q01DX009 (ip), vehicle: saline with Tween-80
[6] = dose: 200.0 mg/kg/injection, schedule: Q01DX009 (ip), vehicle: saline with Tween-80
[7] = dose: 25.0 mg/kg/injection, schedule: Q01DX009 (ip), vehicle: saline with Tween-80
[8] = dose: 60.0 mg/kg/injection, schedule: Q01DX005 (ip), vehicle: Klucel (hydroxypropylcellulose) (HPC)
[9] = dose: 120.0 mg/kg/injection, schedule: Q01DX005 (ip), vehicle: Klucel (hydroxypropylcellulose) (HPC)
[10] = dose: 240.0 mg/kg/injection, schedule: Q01DX005 (ip), vehicle: Klucel (hydroxypropylcellulose) (HPC)

Measured: T/C

Nc1ccc(CCCCc2ccc(S(=O)(=O)F)cc2Cl)c(Cl)c1
inactive: [1] 101 % of control | [2] 118 % of control | [3] 91 % of control | [4] 93 % of control | [5] 99 % of control | dose: 120.0 mg/kg/injection, schedule: Q01DX005 (ip), vehicle: saline with Tween-80 87 % of control | [6] 98 % of control | dose: 240.0 mg/kg/injection, schedule: Q01DX005 (ip), vehicle: saline with Tween-80 92 % of control

CNc1ncnc2c1cnn2C
inactive: [3] 95 % of control | dose: 100.0 mg/kg/injection, schedule: Q04DX003 (ip), vehicle: saline 104 % of control | dose: 200.0 mg/kg/injection, schedule: Q04DX003 (ip), vehicle: saline 109 % of control

CSC(=S)Nc1nc2ccc(C)cc2s1
inactive: dose: 100.0 mg/kg/injection, schedule: Q04DX003 (ip), vehicle: Klucel (hydroxypropylcellulose) (HPC) 95 % of control | dose: 200.0 mg/kg/injection, schedule: Q04DX003 (ip), vehicle: Klucel (hydroxypropylcellulose) (HPC) 88 % of control | dose: 400.0 mg/kg/injection, schedule: Q04DX003 (ip), vehicle: Klucel (hydroxypropylcellulose) (HPC) 92 % of control

COc1ccc2c(c1)CCC1C2CCC2(C)C1CCC2(O)CCN (centres undefined)
inactive: dose: 25.0 mg/kg/injection, schedule: Q04DX002 (ip), vehicle: saline 100 % of control | dose: 50.0 mg/kg/injection, schedule: Q04DX002 (ip), vehicle: saline 101 % of control | dose: 100.0 mg/kg/injection, schedule: Q04DX002 (ip), vehicle: saline 104 % of control

C(=C\C1CC2CCCN2O1)/c1ccccc1 (centres undefined)
inactive: [7] 90 % of control | [3] 105 % of control | [5] 100 % of control | [6] 107 % of control

COC(=O)C1=CN(C)/C(=C/C=C(\C#N)C(=O)OC)C(C#N)=C1N
inactive: dose: 100.0 mg/kg/injection, schedule: Q01DX001 (ip), vehicle: Klucel (hydroxypropylcellulose) (HPC) 96 % of control | dose: 200.0 mg/kg/injection, schedule: Q01DX001 (ip), vehicle: Klucel (hydroxypropylcellulose) (HPC) 97 % of control | dose: 400.0 mg/kg/injection, schedule: Q01DX001 (ip), vehicle: Klucel (hydroxypropylcellulose) (HPC) 96 % of control

C=C1C[C@]23C[C@@]1(O)CC[C@H]2[C@]12C=C[C@H](O1)C(C(=O)OCC)=C2[C@@H]3O
inactive: [8] 108 % of control | [9] 115 % of control | [10] 120 % of control

Cc1cc(=O)n(-c2ccc(F)cc2)[nH]1
inactive: [8] 89 % of control | [9] 92 % of control | [10] 90 % of control

COC(=O)C1=C2Nc3ccccc3C23CCN2C4OC56C7CC4(CN5c4c(OC)cccc4C64CCN5CCC6OCCC6(C7)C54)C4OCCC4(C1)C23 (centres undefined)
inactive: dose: 100.0 mg/kg/injection, schedule: Q04DX002 (ip), vehicle: saline with Tween-80 101 % of control | dose: 200.0 mg/kg/injection, schedule: Q04DX002 (ip), vehicle: saline with Tween-80 101 % of control | dose: 400.0 mg/kg/injection, schedule: Q04DX002 (ip), vehicle: saline with Tween-80 101 % of control

COc1cccc2c1C(=O)c1c(O)c3c(c(O)c1C2=O)C[C@@](O)(C(C)=O)C[C@@H]3OC1CC(NCC(c2ccccc2)c2ccccc2)C(O)C(C)O1 (some centres undefined)
inactive: dose: 6.25 mg/kg/injection, schedule: Q04DX003 (ip), vehicle: water 100 % of control | dose: 12.5 mg/kg/injection, schedule: Q04DX003 (ip), vehicle: water 101 % of control | dose: 25.0 mg/kg/injection, schedule: Q04DX003 (ip), vehicle: water 105 % of control | dose: 50.0 mg/kg/injection, schedule: Q04DX003 (ip), vehicle: water 110 % of control | dose: 100.0 mg/kg/injection, schedule: Q04DX003 (ip), vehicle: water 117 % of control

OC1COc2ccccc2OCCOCCOc2ccccc2OC1
inactive: [1] 100 % of control | [2] 94 % of control | [4] 95 % of control and 96 % of control

CNc1c(F)c(C#N)c(F)c(F)c1C#N
inactive: dose: 12.5 mg/kg/injection, schedule: Q01DX009 (ip), vehicle: saline with Tween-80 96 % of control | [7] 89 % of control | [3] 100 % of control
